Results published in PubChem BioAssay (NCI).
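Values below derive from 48-hour exposures of cells grown in 96-well plates, with endpoints linearly interpolated between the two concentrations bracketing the appropriate inhibition level. TGI: concentration producing complete growth inhibition.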

Columns and labels:
Test in all cases: growth of human tumour cells (NCI), 48 h
[1] = system: ACHN renal
[2] = system: K-562 leukemia
[3] = system: TK-10 renal
[4] = system: IGROV1 ovarian
[5] = system: SK-MEL-28 melanoma
[6] = system: UO-31 renal
[7] = system: SF-539 CNS
[8] = system: HOP-92 NSCLC
[9] = system: SK-OV-3 ovarian
[10] = system: SF-295 CNS
[11] = system: MOLT-4 leukemia
[12] = system: 786-0 renal
[13] = system: M14 melanoma
[14] = system: HT29 colon
[15] = system: HOP-18 NSCLC
[16] = system: LXFL 529 NSCLC
[17] = system: NCI-H226 lung
[18] = system: DMS 273 small cell lung
[19] = system: M19-MEL melanoma
[20] = system: HCT-116 colon
[21] = system: KM20L2 colon
[22] = system: OVCAR-4 ovarian
[23] = system: LOX IMVI melanoma
[24] = system: NCI-H522 lung
[25] = system: SF-268 CNS
[26] = system: UACC-62 melanoma
[27] = system: SK-MEL-5 melanoma
[28] = system: UACC-257 melanoma
[29] = system: CCRF-CEM leukemia
[30] = system: A549 NSCLC
[31] = system: NCI-H460 lung
[32] = system: SNB-19 CNS
[33] = system: RXF 393 renal
[34] = system: KM12 colon
[35] = system: HCC-2998 colon
[36] = system: COLO 205 colon
[37] = system: SW-620 colon
[38] = system: DMS 114 small cell lung
[39] = system: CAKI-1 renal
[40] = system: DLD-1 colon
[41] = system: OVCAR-5 ovarian
[42] = system: EKVX NSCLC
[43] = system: HL-60(TB) leukemia
[44] = system: HCT-15 colon
[45] = system: SK-MEL-2 melanoma
[46] = system: NCI-H23 lung
[47] = system: A498 renal
[48] = system: MALME-3M melanoma
[49] = system: OVCAR-3 ovarian
[50] = system: SNB-75 CNS
[51] = system: OVCAR-8 ovarian
[52] = system: U251 CNS
[53] = system: SN12C renal
[54] = system: RPMI-8226 leukemia
[55] = system: SR leukemia
[56] = system: HOP-62 NSCLC

N/N=C(\CC1OC(=O)c2ccccc21)c1ccco1 (stereo unspecified)
TGI [1]: > 100 µM | TGI [2]: > 100 µM | TGI [3]: > 100 µM | TGI [4]: > 100 µM | TGI [5]: > 100 µM | TGI [6]: > 100 µM | TGI [7]: > 100 µM | TGI [8]: > 100 µM | TGI [9]: > 100 µM | TGI [10]: > 100 µM | TGI [11]: > 100 µM | TGI [12]: 0.164 µM | TGI [13]: > 100 µM | TGI [14]: > 100 µM | TGI [15]: 0.343 µM | TGI [16]: > 100 µM | TGI [17]: > 100 µM | TGI [18]: > 100 µM | TGI [19]: > 100 µM | TGI [20]: > 100 µM | TGI [21]: > 100 µM | TGI [22]: > 100 µM | TGI [23]: > 100 µM | TGI [24]: > 100 µM | TGI [25]: > 100 µM | TGI [26]: > 100 µM | TGI [27]: > 100 µM | TGI [28]: > 100 µM | TGI [29]: > 100 µM | TGI [30]: > 100 µM | TGI [31]: > 100 µM | TGI [32]: > 100 µM | TGI [33]: > 100 µM | TGI [34]: > 100 µM | TGI [35]: > 100 µM | TGI [36]: > 100 µM | TGI [37]: > 100 µM | TGI [38]: > 100 µM | TGI [39]: > 100 µM | TGI [40]: > 100 µM | TGI [41]: > 100 µM | TGI [42]: > 100 µM | TGI [43]: > 100 µM | TGI [44]: > 100 µM | TGI [45]: > 100 µM | TGI [46]: > 100 µM | TGI [47]: > 100 µM | TGI [48]: > 100 µM | TGI [49]: > 100 µM | TGI [50]: > 100 µM

Cc1nc2c(=O)[nH]c(=O)n(C)c2[nH]c1=O
TGI [1]: > 100 µM | TGI [2]: > 100 µM | TGI [3]: > 100 µM | TGI [4]: > 100 µM | TGI [5]: > 100 µM | TGI [6]: > 100 µM | TGI [8]: > 100 µM | TGI [9]: > 100 µM | TGI [11]: > 100 µM | TGI [12]: > 100 µM | TGI [13]: > 100 µM | TGI [14]: > 100 µM | TGI [16]: > 100 µM | TGI [17]: > 100 µM | TGI [18]: > 100 µM | TGI [51]: > 100 µM | TGI [52]: > 100 µM | TGI [53]: > 100 µM | TGI [19]: > 100 µM | TGI [20]: > 100 µM | TGI [21]: > 100 µM | TGI [22]: > 100 µM | TGI [23]: > 100 µM | TGI [24]: > 100 µM | TGI [25]: > 100 µM | TGI [26]: > 100 µM | TGI [54]: > 100 µM | TGI [27]: > 100 µM | TGI [55]: > 100 µM | TGI [28]: > 100 µM | TGI [30]: > 100 µM | TGI [31]: > 100 µM | TGI [32]: > 100 µM | TGI [33]: > 100 µM | TGI [34]: > 100 µM | TGI [35]: > 100 µM | TGI [36]: > 100 µM | TGI [37]: > 100 µM | TGI [39]: > 100 µM | TGI [40]: > 100 µM | TGI [56]: > 100 µM | TGI [41]: > 100 µM | TGI [42]: > 100 µM | TGI [43]: > 100 µM | TGI [44]: > 100 µM | TGI [45]: > 100 µM | TGI [46]: > 100 µM | TGI [47]: > 100 µM | TGI [48]: > 100 µM | TGI [49]: > 100 µM | TGI [50]: > 100 µM
